Data: patent publication EP4789680A1, “NOVEL PACE4 INHIBITOR AND USE THEREOF IN ANTI-OSTEOARTHRITIS” (Inflamax Pharmaceuticals Limited, priority 2023, dated 2025)
Where a SMILES comes first, the peptide text is derived from it.

Tests used:
[1] = tested on: traumatic osteoarthritis model; assay: MMT surgery traumatic osteoarthritis model, test for preventive efficacy; format: in vivo, SD rats; conditions: compared to the OA group; intra-articular injection 3 days and 1 day before MMT surgery; 0.1 mg/kg; sacrificed day 7
Procedure: In this example, a traumatic osteoarthritis model was established by performing a medial meniscus tear (MMT) surgery to verify the preventive effect of the PACE4 inhibitory peptides on OA. In the test for preventive efficacy, the PACE4 inhibitory peptide was administered via intra-articular injection 3 days and 1 day before the modeling surgery (i.e., a total of 2 administrations). In the following examples, the dosage of PACE4 inhibitory peptide was 0.1 mg/kg animal body weight.
Specifically, in the test for preventive efficacy, 24 SD rats were divided into 3 groups (including a control group, an OA modeling group (surgery group), and an OA modeling + preventive administration group (surgery group + drug intervention)), with 8 rats per group. For the OA modeling + preventive administration group, intra-articular injections were administered 3 days and 1 day before MMT surgery. Rats in each group were sacrificed on day 7 after modeling, and joint tissues were collected. Each PACE4 inhibitory peptide was tested individually to determine the preventive effect of each PACE4 inhibitory peptide. Among them, the polypeptide Ac-R-F-K-R-NH2 (control molecule) was selected as a control example. […]

[2] = tested on: traumatic osteoarthritis model; assay: MMT surgery traumatic osteoarthritis model, test for therapeutic efficacy; format: in vivo, Sprague Dawley (SD) rats; conditions: compared to the OA group; intra-articular injection on day 3 and day 10 after MMT surgery; sacrificed day 14
Procedure: In this example, a traumatic osteoarthritis model was established by performing a medial meniscus tear (MMT) surgery to verify the therapeutic effect of the PACE4 inhibitory peptides on OA. In the test for therapeutic efficacy, the injections were administered on day 3 and day 10 after the surgical modeling (i.e., a total of 2 administrations).
Specifically, in the test for therapeutic efficacy, 24 Sprague Dawley (SD) rats were divided into 3 groups (including a control group, an OA modeling group (surgery group), and an OA modeling + therapeutic administration group (surgery group + drug intervention)), with 8 rats per group. For the OA modeling + therapeutic administration group, intra-articular injections were administered on day 3 and day 10 after MMT surgery. Rats in each group were sacrificed on day 14 after modeling, and joint tissues were collected. Each PACE4 inhibitory peptide was tested individually to determine the therapeutic effect of each PACE4 inhibitory peptide. Among them, the polypeptide Ac-R-F-K-R-NH2 (control molecule) was selected as a control example.
Cartilage tissue was collected from each group as samples. The collected cartilage tissue samples were decalcified according to conventional procedures in the art, then embedded in paraffin, and sectioned at a thickness of 7 µm. Safranin O-fast green staining was performed, and the cartilage degeneration was assessed using OARSI scoring. In addition, TRAP staining was performed to determine the subchondral bone resorption in rats before and after MMT surgery and during treatment with the PACE4 inhibitory peptide.

Compound: CC(=O)N[C@@H](CCCNC(=N)N)C(=O)N[C@@H](Cc1ccccc1)C(=O)N[C@@H](CCCCN)C(=O)N[C@@H](CCCNC(=N)N)C(N)=O [Ac-R-F-K-R-NH2] (Ac-RFKR-NH2)
- OARSI score reduced, preventive test [1]: 4%
- OARSI score reduced, therapeutic test [2]: 10%
